These are literature values, as cited in patent publication US11413229B2, “Oral plaque dispersion agent” (KAO CORPORATION, priority 2016, dated 2022).

The conditions of this data set: at 20° C.

Consider `CC(CO)(CO)CO` [Trimethylolethane, 1,1,1-tris(hydroxymethyl)ethane], for which the solubility to water is listed as 60 g/100 mL.
